Experiment: Photostability under continuous 808 nm laser irradiation
Assay type: physicochemical
Settings: aqueous solution, 808 nm laser at 108 mW/cm^2, 20 minutes
Description: Indocyanine green (ICG), an FDA-approved near-infrared dye widely used clinically, was used as a control to evaluate the photostability of compound Ia (SQ 905). ICG was dissolved in water, and compound Ia (SQ 905) was dissolved in methanol. Over a period of 25 minutes, the methanol solution of compound Ia and the aqueous solution of ICG were continuously irradiated with an 808 nm laser at 108 mW/cm^2. During this period, the fluorescence intensity was recorded using a near-infrared II camera (MARS, Artemis Intelligent Imaging, Shanghai, China). Images were recorded every minute for the first 15 minutes, and every 5 minutes thereafter to monitor the fluorescence intensity. The fluorescence intensity of the region of interest (ROI) in the captured images was quantified using ImageJ software and compared with the initial fluorescence intensity to obtain the ratio of fluorescence intensity at each time point relative to the initial intensity. The photostability curve of compound Ia was plotted using GraphPad Prism 8.0.2 software.
Accordingly, the photostability of compound Ia was evaluated in this example. The methanol solution of compound Ia and the aqueous solution of ICG were used for photostability testing.

- decrease of fluorescence intensity after continuous irradiation: 83%
Structure (SMILES): CC1(C)C(/C=C/C=C/C=C/C=C2\N(CCCCS(=O)(=O)O)c3ccc4ccccc4c3C2(C)C)=[N+](CCCCS(=O)(=O)[O-])c2ccc3ccccc3c21 [ICG, Indocyanine green]
